Test results taken from patent US8741338B2, “Targeted delivery to human diseases and disorders” (Universidade de Coimbra, priority 2008, dated 2014).

How the values were obtained:
HMEC-1 cells = experiment: MTT proliferation assay, cytotoxicity of DXR formulations; type: cell-based; conditions: Homo sapiens, total 96 h
Method: (§1) In vitro cytotoxicity of free doxorubicin (DXR) and DXR-containing liposomes was determined for […] and HMEC-1 cells using the MTT (3-(4,5-Dimethylthiazol-2-yl)-2,5-diphenyltetrazolium bromide) proliferation assay (Mosmann, 1983). Briefly, cells were plated in 96-well plates at a density of 8,000 cells per well and incubated with free DXR, non-targeted pH-sensitive (or non-pH-sensitve) liposomes containing DXR or targeted pH-sensitive (or non-pH-sensitve) liposomes containing DXR. Additional controls included free peptide and empty targeted liposomes. Cells were incubated for 1, 3, 24 and 48 h at 37° C. in an atmosphere of 95% humidity and 5% CO2. At the end of the incubation time, cells were gently washed twice with cold PBS to remove DXR and maintained in fresh medium for a total of 96 h. After incubation, the medium was replaced by a solution of 0.5 mg/ml MTT and the cells were further incubated for 4 h at 37° C. in an atmosphere of 95% humidity and 5% CO2. Crystals were dissolved in acidic isopropanol and absorbance in each well was read at 570 nm in a microplate reader (Multiscan EX—Thermo Electron Corporation). IC50 of DXR mediated by the different formulations was determined from the dose/response curves.

MDA-MB-435S cells = experiment: as above; type: cell-based; conditions: Homo sapiens, total 96 h
Method: as §1

SMILES: COc1cccc2c1C(=O)c1c(O)c3c(c(O)c1C2=O)C[C@@](O)(C(=O)CO)C[C@@H]3O[C@H]1C[C@H](N)[C@H](O)[C@H](C)O1 [DXR, Doxorubicin]
- IC50 (HMEC-1 cells; HMEC-1, HMEC-1, 1 h incubation with drug): 434 ± 30 nM
- IC50 (HMEC-1 cells; HMEC-1, HMEC-1, 3 h incubation with drug): 401 ± 59 nM
- IC50 (HMEC-1 cells; HMEC-1, HMEC-1, 24 h incubation with drug): 72 ± 10 nM
- IC50 (HMEC-1 cells; HMEC-1, HMEC-1, 48 h incubation with drug): 58 ± 8 nM
- IC50 (MDA-MB-435S cells; 1 h incubation with drug): 1610 ± 460 nM
- IC50 (MDA-MB-435S cells; 3 h incubation with drug): 1450 ± 270 nM
- IC50 (MDA-MB-435S cells; 24 h incubation with drug): 232 ± 45 nM
- IC50 (MDA-MB-435S cells; 48 h incubation with drug): 113 ± 78 nM
